According to US10421774B2 (priority 2016, dated 2019):
Read-outs that look alike come from different tables or passages of the source.

Experiments:
Assay in all cases: microbe, parasite or virus in culture
Assay type in all cases: cell-based, HIV-1
[1] = test system: T332S/V362I/Pr R41G virus; conditions: for EC90: Human immunodeficiency virus 1, read-out: T332S/V362I/prR41G EC90; for EC50: Human immunodeficiency virus 1, MT2, read-out: T332S/V362I/pr41G EC50
In short: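 Multiple-cycle susceptibility: MT-2 cells, 10,000 per well, exposed to 3-fold compound dilutions at 1% DMSO after infection with luciferase-normalized inoculum. Virus: NL4-3-derived Renilla reporter (Gag P373S) with Gag T332S/V362I and protease R41G. Readout Renilla luciferase after 4–5 days, 37 °C.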

[2] = test system: NLRepRlucP373S recombinant wild type (WT) virus
In short: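 Multiple-cycle assay: luciferase-normalized NL4-3-derived NLRepRlucP373S (Renilla luciferase in place of nef) infects MT-2 cells, 10,000 cells/well, with 3-fold compound dilutions at 1% DMSO, 4-5 days, 37 °C. EC50 and EC90 fitted by median effect equation against Renilla luminescence, with residual signal under 3 μM NFV as background.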

[3] = test system: A364V site directed mutant virus; conditions: for EC90: Human immunodeficiency virus 1, read-out: A364V EC90; for EC50: Human immunodeficiency virus 1, MT2, read-out: A364V EC50
In short: (§1)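 Virus yield quantified by Renilla luciferase after 4–5 day culture at 37°C of MT-2 cells (10,000/well) with 3-fold serially diluted compound at 1% final DMSO. Reporter viruses were NL4-3 P373S derivatives bearing Gag A364V or V370A/ΔT371, inputs matched on luciferase endpoint.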

gag V370A/ΔT371 virus = conditions: for EC90: Human immunodeficiency virus 1, read-out: V370A/ΔT371 EC90; for EC50: Human immunodeficiency virus 1, MT2, read-out: V370A/ΔT371 EC50
In short: as §1

[4] = Human immunodeficiency virus 1, read-out: WT EC50
[5] = Human immunodeficiency virus 1, MT2, read-out: WT EC50

| Compound | EC90 [1] [nM] | EC50 [2, 4] [nM] | EC90 [3] [nM] | EC90 (gag V370A/ΔT371 virus) [nM] | EC50 [1] [nM] | EC50 [2, 5] [nM] | EC50 [3] [nM] | EC50 (gag V370A/ΔT371 virus) [nM] |
| --- | --- | --- | --- | --- | --- | --- | --- | --- |
| C=C(C)[C@@H]1CC[C@]2(NCCN3CCS(=O)(=O)CC3)CC[C@]3(C)[C@H](CC[C@@H]4[C@@]5(C)CC=C(C6=CCC(COCc7ncccc7C#N)(C(=O)O)CC6)C(C)(C)[C@@H]5CC[C@]43C)[C@@H]12 (stereo partly drawn) [reference compound] | 1460 | 2 | 340 | 1460 |  |  |  |  |
| C=C(C)[C@@H]1CC[C@]2(NCCN3CCS(=O)(=O)CC3)CC[C@]3(C)[C@H](CC[C@@H]4[C@@]5(C)CC=C(C6=CC[C@](COc7ccccn7)(C(=O)O)CC6)C(C)(C)[C@@H]5CC[C@]43C)[C@@H]12 [Example 20, (R)-4-((1R,3aS,5aR,5bR,7aR,11aS,11bR,13aR,13bR)-3a-((2-(1,1-dioxidothiomorpholino)ethyl)amino)-5a,5b,8,8,11a-pentamethyl-1-(prop-1-en-2-yl)-2,3,3a,4,5,5a,5b,6,7,7a,8,11,11a,11b,12,13,13a,13b-octadecahydro-1H-cyclopenta[a]chrysen-9-yl)-1-((pyridin-2-yloxy)methyl)cyclohex-3-ene-1-carboxylic acid] |  |  |  |  | < 50 | < 50 | < 50 | < 50 |
| C=C(C)[C@@H]1CC[C@]2(NC[C@@H](O)C(=O)O)CC[C@]3(C)[C@H](CC[C@@H]4[C@@]5(C)CC=C(C6=CC[C@](COc7ncccc7C#N)(C(=O)O)CC6)C(C)(C)[C@@H]5CC[C@]43C)[C@@H]12 [Example A15, (R)-4-((1R,3aS,5aR,5bR,7aR,11aS,11bR,13aR,13bR)-3a-(((R)-2-carboxy-2-hydroxyethyl)amino)-5a,5b,8,8,11a-pentamethyl-1-(prop-1-en-2-yl)-2,3,3a,4,5,5a,5b,6,7,7a,8,11,11a,11b,12,13,13a,13b-octadecahydro-1H-cyclopenta[a]chrysen-9-yl)-1-(((3-cyanopyridin-2-yl)oxy)methyl)cyclohex-3-enecarboxylic acid] |  |  |  |  | 10 | 3 | 794 | 10 |
| C=C(C)[C@@H]1CC[C@]2(NCCN3CCS(=O)(=O)CC3)CC[C@]3(C)[C@H](CC[C@@H]4[C@@]5(C)CC=C(C6=CCC(COc7cnsn7)(C(=O)O)CC6)C(C)(C)[C@@H]5CC[C@]43C)[C@@H]12 (stereo partly drawn) [Example 6, 1-(((1,2,5-thiadiazol-3-yl)oxy)methyl)-4-((1R,3aS,5aR,5bR,7aR,11aS,11bR,13aR,13bR)-3a-((2-(1,1-dioxidothiomorpholino)ethyl)amino)-5a,5b,8,8,11a-pentamethyl-1-(prop-1-en-2-yl)-2,3,3a,4,5,5a,5b,6,7,7a,8,11,11a,11b,12,13,13a,13b-octadecahydro-1H-cyclopenta[a]chrysen-9-yl)cyclohex-3-ene-1-carboxylic acid] |  |  |  |  | < 50 | < 50 | > 50 | < 50 |
| C=C(C)[C@@H]1CC[C@]2(NCCN3CCS(=O)(=O)CC3)CC[C@]3(C)[C@H](CC[C@@H]4[C@@]5(C)CC=C(C6=CCC(CCOc7ncccc7C(F)(F)F)(C(=O)O)CC6)C(C)(C)[C@@H]5CC[C@]43C)[C@@H]12 (stereo partly drawn) [Example A30, 4-((1R,3aS,5aR,5bR,7aR,11aS,11bR,13aR,13bR)-3a-((2-(1,1-dioxidothiomorpholino)ethyl)amino)-5a,5b,8,8,11a-pentamethyl-1-(prop-1-en-2-yl)-2,3,3a,4,5,5a,5b,6,7,7a,8,11,11a,11b,12,13,13a,13b-octadecahydro-1H-cyclopenta[a]chrysen-9-yl)-1-(2-((3-(trifluoromethyl)pyridin-2-yl)oxy)ethyl)cyclohex-3-ene-1-carboxylic acid] |  |  |  |  | 223 | 13 | 3000 | 223 |
| C=C(C)[C@@H]1CC[C@]2(NCC[C@]3(O)CC[C@@H](S(C)(=O)=O)CC3)CC[C@]3(C)[C@H](CC[C@@H]4[C@@]5(C)CC=C(C6=CC[C@@](COc7ncccc7C#N)(C(=O)O)CC6)C(C)(C)[C@@H]5CC[C@]43C)[C@@H]12 [Example A3, (S)-1-(((3-cyanopyridin-2-yl)oxy)methyl)-4-((1R,3aS,5aR,5bR,7aR,11aS,11bR,13aR,13bR)-3a-((2-((1s,4R)-1-hydroxy-4-(methylsulfonyl)cyclohexyl)ethyl)amino)-5a,5b,8,8,11a-pentamethyl-1-(prop-1-en-2-yl)-2,3,3a,4,5,5a,5b,6,7,7a,8,11,11a,11b,12,13,13a,13b-octadecahydro-1H-cyclopenta[a]chrysen-9-yl)cyclohex-3-enecarboxylic acid] | 17 | 4 | 166 | 15 | 5 | 4 | 11 | 5 |
| C=C(C)[C@@H]1CC[C@]2(NCCN3CCS(=O)(=O)CC3)CC[C@]3(C)[C@H](CC[C@@H]4[C@@]5(C)CC=C(C6=CC[C@@](COc7cnccn7)(C(=O)O)CC6)C(C)(C)[C@@H]5CC[C@]43C)[C@@H]12 [Example 32, (S)-4-((1R,3aS,5aR,5bR,7aR,11aS,11bR,13aR,13bR)-3a-((2-(1,1-dioxidothiomorpholino)ethyl)amino)-5a,5b,8,8,11a-pentamethyl-1-(prop-1-en-2-yl)-2,3,3a,4,5,5a,5b,6,7,7a,8,11,11a,11b,12,13,13a,13b-octadecahydro-1H-cyclopentatalchrysen-9-yl)-1-((pyrazin-2-yloxy)methyl)cyclohex-3-ene-1-carboxylic acid] |  |  |  |  | < 50 | < 50 | < 50 | < 50 |
| C=C(C)[C@@H]1CC[C@]2(NCCN3CCS(=O)(=O)CC3)CC[C@]3(C)[C@H](CC[C@@H]4[C@@]5(C)CC=C(C6=CCC(CCOc7cc(Br)ccn7)(C(=O)O)CC6)C(C)(C)[C@@H]5CC[C@]43C)[C@@H]12 (stereo partly drawn) [Example A33, 1-(2-((4-bromopyridin-2-yl)oxy)ethyl)-4-((1R,3aS,5aR,5bR,7aR,11aS,11bR,13aR,13bR)-3a-((2-(1,1-dioxidothiomorpholino)ethyl)amino)-5a,5b,8,8,11a-pentamethyl-1-(prop-1-en-2-yl)-2,3,3a,4,5,5a,5b,6,7,7a,8,11,11a,11b,12,13,13a,13b-octadecahydro-1H-cyclopenta[a]chrysen-9-yl)cyclohex-3-ene-1-carboxylic acid] |  |  |  |  | 419 | 6 | 1790 | > 50 |
| C=C(C)[C@@H]1CC[C@]2(NCC[C@]3(O)CC[C@@H](S(C)(=O)=O)CC3)CC[C@]3(C)[C@H](CC[C@@H]4[C@@]5(C)CC=C(C6=CCC(COc7ccccn7)(C(=O)O)CC6)C(C)(C)[C@@H]5CC[C@]43C)[C@@H]12 (stereo partly drawn) [Example A1, 4-((1R,3aS,5aR,5bR,7aR,11aS,11bR,13aR,13bR)-3a-((2-((1s,4R)-1-hydroxy-4-(methylsulfonyl)cyclohexyl)ethyl)amino)-5a,5b,8,8,11a-pentamethyl-1-(prop-1-en-2-yl)-2,3,3a,4,5,5a,5b,6,7,7a,8,11,11a,11 b,12,13,13a,13b-octadecahydro-1H-cyclopenta[a]chrysen-9-yl)-1-((pyridin-2-yloxy)methyl)cyclohex-3-enecarboxylic acid] |  |  |  |  | 26 | 5 | 9 | 26 |
| C=C(C)[C@@H]1CC[C@]2(NCCC3(O)CCS(=O)(=O)CC3)CC[C@]3(C)[C@H](CC[C@@H]4[C@@]5(C)CC=C(C6=CCC(COc7ccccn7)(C(=O)O)CC6)C(C)(C)[C@@H]5CC[C@]43C)[C@@H]12 (stereo partly drawn) [Example 33, 4-((1R,3aS,5aR,5bR,7aR,11aS,11bR,13aR,13bR)-3a-((2-(4-hydroxy-1,1-dioxidotetrahydro-2H-thiopyran-4-yl)ethyl)amino)-5a,5b,8,8,11a-pentamethyl-1-(prop-1-en-2-yl)-2,3,3a,4,5,5a,5b,6,7,7a,8,11,11a,11b,12,13,13a,13b-octadecahydro-1H-cyclopenta[a]chrysen-9-yl)-1-((pyridin-2-yloxy)methyl)cyclohex-3-ene-1-carboxylic acid] |  |  |  |  | < 50 | 5 | 16 | < 50 |
| C=C(C)[C@@H]1CC[C@]2(NCCN3CCS(=O)(=O)CC3)CC[C@]3(C)[C@H](CC[C@@H]4[C@@]5(C)CC=C(C6=CCC(CCOc7ccccn7)(C(=O)O)CC6)C(C)(C)[C@@H]5CC[C@]43C)[C@@H]12 (stereo partly drawn) [Example A20, 4-((1R,3aS,5aR,5bR,7aR,11aS,11bR,13aR,13bR)-3a-((2-(1,1-dioxidothiomorpholino)ethyl)amino)-5a,5b,8,8,11a-pentamethyl-1-(prop-1-en-2-yl)-2,3,3a,4,5,5a,5b,6,7,7a,8,11,11a,11b,12,13,13a,13b-octadecahydro-1H-cyclopenta[a]chrysen-9-yl)-1-(2-(pyridin-2-yloxy)ethyl)cyclohex-3-ene-1-carboxylic acid] |  |  |  |  | < 50 | < 50 | < 50 | < 50 |
